From ChEMBL document CHEMBL1201862, “PubChem BioAssay data set” (2004)
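Tested at 5 concentrations; 48 h exposure; 96-well plates; endpoints linearly interpolated, else capped at highest concentration. GI50: concentration for 50% inhibition of growth.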 Calls of active or inactive are those of the source. No stated cut-off is given here; in the data, active = GI50 up to about 1.1 µM and inactive = higher.

Assays:
Test in all cases: growth of human tumour cells (NCI), 48 h
HL-60 = system: HL-60
HT-29 = system: HT-29
TK-10 = system: TK-10
IGROV-1 = system: IGROV-1
RPMI-8226 = system: RPMI-8226
A498 = system: A498
PC-3 = system: PC-3
KM12 = system: KM12
OVCAR-8 = system: OVCAR-8
SK-MEL-5 = system: SK-MEL-5
SNB-75 = system: SNB-75
SNB-19 = system: SNB-19
NCI-H460 = system: NCI-H460
SK-MEL-2 = system: SK-MEL-2
HCC 2998 = system: HCC 2998
786-0 = system: 786-0
M14 = system: M14
Malme-3M = system: Malme-3M
HCT-116 = system: HCT-116
OVCAR-5 = system: OVCAR-5

Row | Structure (SMILES) | GI50 (HL-60) | GI50 (HT-29) | GI50 (TK-10) | GI50 (IGROV-1) | GI50 (RPMI-8226) | GI50 (A498) | GI50 (PC-3) | GI50 (KM12) | GI50 (OVCAR-8) | GI50 (SK-MEL-5) | GI50 (SNB-75) | GI50 (SNB-19) | GI50 (NCI-H460) | GI50 (SK-MEL-2) | GI50 (HCC 2998) | GI50 (786-0) | GI50 (M14) | GI50 (Malme-3M) | GI50 (HCT-116) | GI50 (OVCAR-5)
1 | COc1cccc(-c2cc(=O)c3cc(N4CCCCC4)ccc3[nH]2)c1 | < 0.01 µM (active) | < 0.0129 µM (active) | 79.3 µM (inactive) | 0.0397 µM (active) | < 0.01 µM (active) | 0.0188 µM (active) | < 0.0129 µM (active) | < 0.01 µM (active) | 0.026 µM (active) | < 0.01 µM (active) | 0.6 µM (active) | < 0.0117 µM (active) | < 0.0199 µM (active) | 0.521 µM (active) | 0.0434 µM (active) | < 0.0119 µM (active) | < 0.0132 µM (active) | 13.7 µM (inactive) | < 0.01 µM (active) | 
2 | O=C1OC2(C(F)(F)F)Oc3ccccc3CN2C12CCCCC2 (centres undefined) | 16.5 µM (inactive) | 23.7 µM (inactive) | 46.2 µM (inactive) | 48.4 µM (inactive) |  | 53.8 µM (inactive) | 27.6 µM (inactive) | 23.8 µM (inactive) | 36.3 µM (inactive) |  | 16 µM (inactive) | 36.3 µM (inactive) | 22.5 µM (inactive) |  | 33.1 µM (inactive) | 35.3 µM (inactive) | 19.5 µM (inactive) | 18 µM (inactive) | 20.2 µM (inactive) | 22 µM (inactive)
3 | CC(C)(C)OC(=O)NCC(=O)N(CCc1ccc(Cl)c(Cl)c1)CCN1CCCC1 | 12.1 µM (inactive) | 6.32 µM (inactive) | 17.1 µM (inactive) | 15.8 µM (inactive) | 5.01 µM (inactive) | 17.8 µM (inactive) | 15.3 µM (inactive) | 16.3 µM (inactive) | 18 µM (inactive) | 13.7 µM (inactive) | 17.5 µM (inactive) | 17.8 µM (inactive) | 15.8 µM (inactive) | 16.9 µM (inactive) | 5.14 µM (inactive) | 14 µM (inactive) | 14.3 µM (inactive) | 19.8 µM (inactive) | 13.7 µM (inactive) | 18.9 µM (inactive)
4 | CCOC1=NC(C(F)(F)F)(C(F)(F)F)N=C(/N=C(/N)N(C)C(C(C)C)P(=O)(OC(C)C)OC(C)C)O1 (centres undefined) | 27.7 µM (inactive) | > 100 µM (inactive) | > 100 µM (inactive) | 69.8 µM (inactive) | 45.9 µM (inactive) | > 100 µM (inactive) | > 100 µM (inactive) | 78.2 µM (inactive) | 48.5 µM (inactive) | 59.8 µM (inactive) | 44.8 µM (inactive) | > 100 µM (inactive) | > 100 µM (inactive) | 91.4 µM (inactive) | > 100 µM (inactive) | > 100 µM (inactive) | > 100 µM (inactive) | 54.1 µM (inactive) | 82.2 µM (inactive) | > 100 µM (inactive)
5 | CC1=NN(c2nc(N)nc(CSCc3nc(N)nc(N(C)C)n3)n2)C(C)(C)C1 | > 100 µM (inactive) | > 100 µM (inactive) | > 100 µM (inactive) | > 100 µM (inactive) | > 100 µM (inactive) | > 100 µM (inactive) | > 100 µM (inactive) | > 100 µM (inactive) | > 100 µM (inactive) | > 100 µM (inactive) | 60.5 µM (inactive) | > 100 µM (inactive) | > 100 µM (inactive) | > 100 µM (inactive) | > 100 µM (inactive) | > 100 µM (inactive) | > 100 µM (inactive) |  | > 100 µM (inactive) | > 100 µM (inactive)
6 | CSc1nc(-c2ccc(C)cc2)c(C#N)c(=O)[nH]1 | > 100 µM (inactive) | > 100 µM (inactive) | > 100 µM (inactive) | > 100 µM (inactive) | > 100 µM (inactive) | > 100 µM (inactive) | > 100 µM (inactive) | > 100 µM (inactive) | > 100 µM (inactive) | > 100 µM (inactive) | 43.7 µM (inactive) | > 100 µM (inactive) | > 100 µM (inactive) | > 100 µM (inactive) | > 100 µM (inactive) | > 100 µM (inactive) | > 100 µM (inactive) |  | > 100 µM (inactive) | > 100 µM (inactive)
7 | CCCCNC(=O)Nc1c(C(N)=O)c2n(c1C(=O)OCC)CCCCC2 | > 100 µM (inactive) | > 100 µM (inactive) | > 100 µM (inactive) | > 100 µM (inactive) | > 100 µM (inactive) | > 100 µM (inactive) | > 100 µM (inactive) | > 100 µM (inactive) | > 100 µM (inactive) | > 100 µM (inactive) | > 100 µM (inactive) | > 100 µM (inactive) | > 100 µM (inactive) | > 100 µM (inactive) | > 100 µM (inactive) | > 100 µM (inactive) | > 100 µM (inactive) |  | > 100 µM (inactive) | 
8 | C[C@]12C[C@@H](OC(=O)[C@]1(C)O)[C@@H]([C@]1(O)CC[C@H]3[C@@H]4C[C@H]5O[C@]56C[C@H]5O[C@H]5C(=O)[C@]6(C)[C@H]4CC[C@@]31C)C2 | > 50 µM (inactive) | > 50 µM (inactive) | > 50 µM (inactive) | > 50 µM (inactive) | > 50 µM (inactive) | > 50 µM (inactive) | > 50 µM (inactive) | > 50 µM (inactive) | > 50 µM (inactive) | > 50 µM (inactive) | 36 µM (inactive) | > 50 µM (inactive) | > 50 µM (inactive) | > 50 µM (inactive) | > 50 µM (inactive) | > 50 µM (inactive) | > 50 µM (inactive) | > 5 µM (inactive) | > 50 µM (inactive) | > 50 µM (inactive)
9 | O=c1c2c(F)c(F)c(F)c(F)c2sc2nccn12 | 2.06 µM (inactive) | 16.9 µM (inactive) | 18.4 µM (inactive) | 17.4 µM (inactive) | 16.7 µM (inactive) | 19.2 µM (inactive) | 18.4 µM (inactive) | 17.1 µM (inactive) | 19.2 µM (inactive) | 18.5 µM (inactive) | 22.5 µM (inactive) | 19.8 µM (inactive) | 11.2 µM (inactive) | 19.1 µM (inactive) | 17.5 µM (inactive) | 15.2 µM (inactive) | 17.6 µM (inactive) | 17.3 µM (inactive) | 13.9 µM (inactive) | 20.4 µM (inactive)
10 | CSC(=S)N/N=C(\C)c1ccc(S(=O)(=O)N(C)c2ccccc2)cc1 | 6.5 µM (inactive) | 26.1 µM (inactive) | > 100 µM (inactive) | 3.5 µM (inactive) | 27.8 µM (inactive) | 89.7 µM (inactive) | 19.3 µM (inactive) | 21.9 µM (inactive) | 31.6 µM (inactive) |  | 39.3 µM (inactive) | 26.4 µM (inactive) | 5.13 µM (inactive) | 35.3 µM (inactive) | > 100 µM (inactive) | 34.4 µM (inactive) | 25.5 µM (inactive) | 2.07 µM (inactive) | 14.3 µM (inactive) | > 100 µM (inactive)
11 | Cn1c2c(c3ccccc31)CC(=O)N1CCCC(C1)CC21OCCO1 (centres undefined) | > 100 µM (inactive) | > 100 µM (inactive) | > 100 µM (inactive) | > 100 µM (inactive) | > 100 µM (inactive) | > 100 µM (inactive) | > 100 µM (inactive) | > 100 µM (inactive) | > 100 µM (inactive) | > 100 µM (inactive) | > 100 µM (inactive) | > 100 µM (inactive) | > 100 µM (inactive) | > 100 µM (inactive) | > 100 µM (inactive) | > 100 µM (inactive) | > 100 µM (inactive) | > 100 µM (inactive) | 41.7 µM (inactive) | > 100 µM (inactive)
12 | CC(=O)O[C@H]1[C@@H](N2CCOCC2)C[C@H]2[C@@H]3CC=C4C[C@@H](N5CCCC5)CC[C@]4(C)[C@H]3CC[C@@]21C | 56.4 µM (inactive) | 5.21 µM (inactive) | > 100 µM (inactive) | > 100 µM (inactive) | > 100 µM (inactive) | > 100 µM (inactive) | > 100 µM (inactive) | > 100 µM (inactive) | > 100 µM (inactive) | > 100 µM (inactive) | > 100 µM (inactive) | > 100 µM (inactive) | > 100 µM (inactive) | > 100 µM (inactive) | 48.8 µM (inactive) | > 100 µM (inactive) | 35.4 µM (inactive) | > 100 µM (inactive) | 65.8 µM (inactive) | > 100 µM (inactive)
13 | NC1CNC(=O)c2c(Cl)sc(Cl)c21 (centres undefined) | > 10 µM (inactive) | > 100 µM (inactive) | > 100 µM (inactive) | > 100 µM (inactive) | > 100 µM (inactive) | > 100 µM (inactive) | > 100 µM (inactive) | > 100 µM (inactive) | > 100 µM (inactive) |  | > 100 µM (inactive) | > 100 µM (inactive) | > 100 µM (inactive) | > 100 µM (inactive) | > 100 µM (inactive) | > 100 µM (inactive) | > 100 µM (inactive) | > 100 µM (inactive) | > 100 µM (inactive) | > 100 µM (inactive)
14 | O=C1NC(=O)C(C(CC(=O)c2ccc(Cl)cc2)c2ccc(Cl)cc2)C(=O)N1 (centres undefined) | > 100 µM (inactive) | > 100 µM (inactive) |  | > 100 µM (inactive) | 33.7 µM (inactive) | > 100 µM (inactive) | > 100 µM (inactive) | 37.8 µM (inactive) | > 100 µM (inactive) | > 100 µM (inactive) | > 100 µM (inactive) | > 100 µM (inactive) | > 100 µM (inactive) | > 100 µM (inactive) | 6.73 µM (inactive) | > 100 µM (inactive) | > 100 µM (inactive) | 0.225 µM (active) | 34 µM (inactive) | > 100 µM (inactive)
